Measurements: patent US12329159B2, “Systems and methods for use of chlorine dioxide in cultivation and post-harvest applications” (Prokure Solutions, LLC, priority 2018, dated 2025)
Several values for one entry are separate records, joined by “and”; a condition that tells them apart may be missing. Equal values may be shown once.

Tests used:
Chaetomium = experiment: Spore trap testing, treated greenhouse: Chaetomium; assay type: in vivo; conditions: 1.2 mg chlorine dioxide gas per hour per 4000 cubic feet
Procedure: (§1) Very low-level chlorine dioxide protection using about 3 mg chlorine dioxide gas per hour for every 4000 cubic feet (50-gram ProKure® D Extended Release Gas product (ProKure® Solutions), 2000 mg total over 4 weeks) was tested to determine the effects on reduction and prevention of fungal microorganism counts. The rate of chlorine dioxide production will vary depending on the relative humidity (RH) in the room. The above rate is for RH range of 40-60%. Each 3 mg chlorine dioxide per hour product (50-gram) unit will cover 4000 cubic feet of space. The 4000 cubic foot volume is recommended for safety reasons. This volume of space insures that the concentration of the gas remains below the OSHA regulated Permissible Exposure Limit (PEL) which is 0.1 ppmv (time weighted average (TWA) over a 8-hours per day or 40-hour work week) and the Short Term Exposure Limit (STEL) which is 0.3 ppmv (TWA over any 15-minute period) for chlorine dioxide.
(§2) All data is based on the dose described a unless otherwise noted. The spore counts per cubic meter prior to treatment are compared to spore counts per cubic meter post treatment with the treatment time indicated. […]
(§3) Treatment was performed using 1.2 mg chlorine dioxide gas per hour per 4000 cubic feet. […] The fungus could not be detected by visual inspection after about 30 days of treatment. […]

Cladosporium = experiment: Spore trap testing, treated greenhouse: Cladosporium; assay type: in vivo; conditions: 1.2 mg chlorine dioxide gas per hour per 4000 cubic feet
Procedure: as §1, §2, §3

Penicillium/Aspergillus = experiment: Spore trap testing, treated greenhouse: Penicillium/Aspergillus; assay type: in vivo; conditions: 1.2 mg chlorine dioxide gas per hour per 4000 cubic feet
Procedure: as §1, §2, §3

Alternaria = experiment: Spore trap testing, treated greenhouse: Alternaria; assay type: in vivo; conditions: 1.2 mg chlorine dioxide gas per hour per 4000 cubic feet
Procedure: as §1, §2, §3

Torula = experiment: Spore trap testing, treated greenhouse: Torula; assay type: in vivo; conditions: 1.2 mg chlorine dioxide gas per hour per 4000 cubic feet
Procedure: as §1, §2, §3

[1] = tested on: unidentified fungal strain having an appearance similar to powdery mildew; experiment: Visual inspection of fungal infection on greenhouse mother plants; assay type: in vivo; conditions: 1.2 mg chlorine dioxide gas per hour per 4000 cubic feet, 4500 mother plants
Procedure: An experimental trial was performed in a greenhouse with approximately 1×10^6 cubic feet of space holding 4500 mother plants. All plants were potted in soil and were approximately 5-7 feet tall, depending on whether cuttings had recently been taken for clone propagation. Plants evidenced visible signs of infection with an unidentified fungal strain having an appearance similar to powdery mildew. The fungus was actively growing and covered most leaves and major stalks. The fungus was a strain that only infected the surface of the plants and was not systemic in the plants.
Treatment was performed using 1.2 mg chlorine dioxide gas per hour per 4000 cubic feet. Spore trap testing was performed pre-treatment and at seven days post-treatment. The fungus could not be detected by visual inspection after about 30 days of treatment. Treatment continued as a preventative measure, with further spore trap testing at 45 days post treatment. Spore trap data follows below in Table 5.

[2] = tested on: visible mold growing on flowers; experiment: Trial 3: gaseous chlorine dioxide treatment of flowering plants with visible mold; assay type: in vivo; conditions: 0.45 mg chlorine dioxide gas per cubic foot, 18 hours
Procedure: A third trial was performed in a 33400 cubic foot space with 840 flowering plants at week eight of an eight-week cultivation cycle. Most plants had visible mold growing on flowers. The chlorine dioxide dose was 0.45 mg chlorine dioxide gas per cubic foot of space. Contact time was 18 hours, the room was maintained in darkness for the first 12 hours, and grow lights came on for the last 6 hours contact time, but the chlorine dioxide gas concentration monitoring was only performed for about 10 hours.
The HVAC system for the 33400 cubic foot space that had 840 flowering plants in the last week of flower failed. Within hours the temperature and humidity increased, and visible mold growth was found on most of the flower within 24 hours. To treat the mold and potentially prevent the loss of over 100 pounds of Cannabis flower product, a dose of 0.45 mg chlorine dioxide gas per cubic foot was dispensed into the space (14× ProKure® G Fast Release Gas packets (25-gram) (ProKure® Solutions)). […] Essentially, it was never above the detection limit of the sensor (0.5 ppmv). […] An odor would be expected for this application rate, so the lack of odor provides further evidence that the concentration of chlorine dioxide remained below the odor threshold of about 0.03 to 0.1 ppmv. […]

Aureobasidium = experiment: Spore trap testing, treated greenhouse: Aureobasidium; assay type: in vivo; conditions: 1.2 mg chlorine dioxide gas per hour per 4000 cubic feet
Procedure: as §1, §2, §3

Cannabis plants [3] = experiment: Effects of chlorine dioxide on vegetative growth (grow tent, leaf count); assay type: in vivo; conditions: about 3 mg of chlorine dioxide per hour, 10 days; for Leaf Count # of new leaves / Leaf Count Final: Experimental tent, 240 cubic feet
Procedure: Experiments were performed to determine the effects of using a continuous release dose of about 3 mg of chlorine dioxide per hour on the vegetative growth of Cannabis plants.
Cannabis plants were placed in a grow tent and grown under artificial lighting for 10 days. Leaf counts were performed prior to placing in the tent and again after 10 days. Two separate grow tents were used, one for the experiment and one as the control. The total leaf count was compared between the experimental and control plants. Temperature and relative humidity measurements were taken 3 times per day to ensure both tents maintained the same environmental conditions.
A pouch was hung from the top of the inside of the experimental tent. The pouch dispensed approximately 3 mg of chlorine dioxide per hour for the duration of the trial (10 days). Within the experimental tent the Cannabis plants were exposed to about 720 mg of gaseous chlorine dioxide over the 10-day period.
Three Cannabis plants were placed into each tent. Two of the plants were of a Cannabis indica variety, and one plant was a Cannabis sativa variety. The photoperiod used in both tents was 20 hours with lights on followed by 4 hours with lights off. All watering, nutrients, pest control, etc. were identical for all plants.

[4] = cited from earlier work
Ulocladium = experiment: Spore trap testing, treated greenhouse: Ulocladium; assay type: in vivo; conditions: 1.2 mg chlorine dioxide gas per hour per 4000 cubic feet
Procedure: as §1, §2, §3

Basidiospores = experiment: Spore trap testing, treated greenhouse: Basidiospores; assay type: in vivo; conditions: 1.2 mg chlorine dioxide gas per hour per 4000 cubic feet
Procedure: as §1, §2, §3

Cannabis plants [5] = experiment: Toxicity responses of Cannabis plants to foliar applications of chlorine dioxide; assay type: in vivo; conditions: for plants with damage to floral tissue (discoloration): after the third application
Procedure: Regular and excessive rates of chlorine dioxide dissolved in water were sprayed up to five times at 2-day intervals on two varieties of Cannabis plants in both vegetative and flowering stages to determine if plant damage would result. Adverse effects were assessed based on visible discoloration or chlorosis of leaves and/or flowers. All plants were monitored for several days after the final application of chlorine dioxide.
Experiments were performed in a greenhouse with temperatures between 70° F. and 80° F. Plants were potted in soil and appeared healthy and undamaged prior to treatment. All plants received the same amount of water and nutrients as controls, delivered via soil drenching. All plants, including controls, were the same age. At the beginning of the experiments, both flowering and vegetative plants had 3 weeks of the respective growth stage remaining.
Concentrations of chlorine dioxide tested include 0, 50, 100, and 500 ppm. All chlorine dioxide solutions were prepared from 500 ppm stock solution, mixed in containers and used immediately. Each of the rates was tested in triplicate with separate plants in both stages of growth and with Cannabis indica and Cannabis sativa Cannabis plants. A common trigger sprayer bottle with the tip adjusted to a mist setting was used to apply treatments. Plants were sprayed until all leaves and stems were visibly wet. Each treatment rate was applied at 2-day intervals, and the number of applications ranged from 1 to 5 depending on the amount of damage that occurred to the plant.
Damage was assessed 2 days after an application and prior to the next application. Treated plants were assessed for damage 6 days after the 5th and final spray treatment. Observed symptoms associated with the application of chlorine dioxide were necrosis of leaf tissue appearing as lesions between and across leaf veins and at leaf margins. Early symptoms included yellowing of leaves. Some lesions had dark brown borders and/or appeared desiccated.

Fusarium = experiment: Spore trap testing, treated greenhouse: Fusarium; assay type: in vivo; conditions: 1.2 mg chlorine dioxide gas per hour per 4000 cubic feet
Procedure: as §1, §2, §3

Bipolaris/Drechslera = experiment: Spore trap testing, treated greenhouse: Bipolaris/Drechslera; assay type: in vivo; conditions: 1.2 mg chlorine dioxide gas per hour per 4000 cubic feet
Procedure: as §1, §2, §3

Cannabis plants [6] = experiment: Toxicity responses of Cannabis plants to applications of gaseous chlorine dioxide; assay type: in vivo
Excerpt: Two varieties of Cannabis plants in both vegetative and flowering stages were exposed to various amounts of chlorine dioxide gas to determine if plant damage would result. Adverse effects were based on discoloration or chlorosis type damage to leaves and/or flowers. Leaves of each plant were collected prior to experiments and again 2 days post treatment for tissue analysis. Leaf samples were sent to a third-party laboratory for analysis of nutrients and total chloride (Cl^−). Tissue analysis of leaves pre- and post-treatment were compared to determine uptake of chlorine dioxide and/or its by-products. Control plants were used for visual comparison in determining plant damage. All plants were monitored for several days after application of chlorine dioxide gas. Plants were potted in soil and appeared healthy and undamaged unless otherwise noted. All plants including controls were of the same age for each growth stage. • The chlorine dioxide gas exposure was based on concentration with units of mg of chlorine dioxide per cubic foot of space.
A first trial was performed in a space of 1550 cubic feet with four healthy plants in the space, two of which were in flower at week 5 of 8, and the other two of which had one week of vegetative stage remaining. The chlorine dioxide dose was 1.9 mg chlorine dioxide per cubic foot of space (one 25 g ProKure® G Fast Release Gas packet (ProKure® Solutions, Phoenix, AZ) and 4 liters of 500 ppm chlorine dioxide solution). Contact time was 18 hours, and the room was maintained in darkness for the duration of the contact time.
A second trial was performed in a space of about 33400 cubic feet with 840 flowering plants at week eight of an eight-week cultivation cycle. All plants were healthy. […] The chlorine dioxide dose was 0.45 mg chlorine dioxide gas per cubic foot of space. Contact time was 18 hours, and the room was maintained in darkness for the first 12 hours, and grow lights came on for the last 6 hours of contact time, but the chlorine dioxide gas concentration monitoring was only performed for about 10 hours.

Smuts/Myxomycetes = experiment: Spore trap testing, treated greenhouse: Smuts/Myxomycetes; assay type: in vivo; conditions: 1.2 mg chlorine dioxide gas per hour per 4000 cubic feet
Procedure: as §1, §2, §3

Oidium = experiment: Spore trap testing, treated greenhouse: Oidium; assay type: in vivo; conditions: 1.2 mg chlorine dioxide gas per hour per 4000 cubic feet
Procedure: as §1, §2, §3

total spores = experiment: Spore trap testing, treated greenhouse: Total spores; assay type: in vivo; conditions: 1.2 mg chlorine dioxide gas per hour per 4000 cubic feet
Procedure: as §1, §2, §3

Ascospores = experiment: Spore trap testing, treated greenhouse: Ascospores; assay type: in vivo; conditions: 1.2 mg chlorine dioxide gas per hour per 4000 cubic feet
Procedure: as §1, §2, §3

[7] = 500 ppm foliar spray, all plants, after the fifth application

Structure (SMILES): [O][Cl+][O-] [chlorine dioxide]
- Chaetomium spore Count (Chaetomium; 7 Days Post-Treatment): 0 per cubic meter
- Chaetomium spore Count (Chaetomium; 45 Days Post-Treatment): 0 per cubic meter
- Cladosporium spore Count (Cladosporium; 7 Days Post-Treatment): 54 per cubic meter
- Cladosporium spore Count (Cladosporium; 45 Days Post-Treatment): 0 per cubic meter
- Penicillium/Aspergillus spore Count (Penicillium/Aspergillus; 7 Days Post-Treatment): 0 per cubic meter
- Penicillium/Aspergillus spore Count (Penicillium/Aspergillus; 45 Days Post-Treatment): 0 per cubic meter
- Alternaria spore Count (Alternaria; 7 Days Post-Treatment): 0 per cubic meter
- Alternaria spore Count (Alternaria; 45 Days Post-Treatment): 0 per cubic meter
- Torula spore Count (Torula; 7 Days Post-Treatment): 0 per cubic meter
- Torula spore Count (Torula; 45 Days Post-Treatment): 0 per cubic meter
- time of treatment after which the fungus could not be detected by visual inspection [1]: about 30 days
- visible mold on the plants after the application [2]: No mold was visible on the plants after the application
- Aureobasidium spore Count (Aureobasidium; 7 Days Post-Treatment): 0 per cubic meter
- Aureobasidium spore Count (Aureobasidium; 45 Days Post-Treatment): 0 per cubic meter
- Leaf Count # of new leaves (Cannabis plants [3]; Indica): 68 and 36
- Leaf Count Final (Cannabis plants [3]; Indica): 92 and 61
- Leaf Count # of new leaves (Cannabis plants [3]; Sativa): 52
- Leaf Count Final (Cannabis plants [3]; Sativa): 83
- visible sign of adverse effects (Cannabis plants [3]; 240 cubic feet tent): none of the plants showed any visible sign of adverse effects
- Short Term Exposure Limit (STEL) ([4]; TWA over any 15-minute period): 0.3 ppmv
- OSHA regulated Permissible Exposure Limit (PEL) ([4]; time weighted average over 8 hours per day or 40-hour work week): 0.1 ppmv
- Ulocladium spore Count (Ulocladium; 7 Days Post-Treatment): 0 per cubic meter
- Ulocladium spore Count (Ulocladium; 45 Days Post-Treatment): 0 per cubic meter
- Basidiospores Count (Basidiospores; 7 Days Post-Treatment): 53 per cubic meter
- Basidiospores Count (Basidiospores; 45 Days Post-Treatment): 0 per cubic meter
- foliar or flower tissue damage (Cannabis plants [5]; 50 ppm chlorine dioxide in water, foliar spray, five applications at 2-day intervals): No foliar or flower tissue damage was visible
- plants exhibiting damage to leaves (Cannabis plants [5]; 100 ppm foliar spray, indica-type flowering plants, two days after the 4th application): Two out of the three
- damage to leaves or flowers (Cannabis plants [5]; 100 ppm foliar spray, sativa-type flowering plants): None of the sativa-type flowering plants exhibited damage to leaves or flowers
- visible damage to leaves (Cannabis plants [5]; 100 ppm foliar spray, vegetative plants of both varieties): exhibited visible damage to leaves following the fourth application
- smell compared with control plants (Cannabis plants [5]; [7]): did not have the same smell as control plants
- tissue damage (Cannabis plants [5]; [7]): exhibited tissue damage after the fifth application
- leaf damage (Cannabis plants [5]; 500 ppm foliar spray, all plants, single application): exhibited leaf damage 24 to 48 hours after a single application
- plants with damage to floral tissue (discoloration) (Cannabis plants [5]; 500 ppm foliar spray, indica-type plants): 2 of the 3
- plants with damage to floral tissue (discoloration) (Cannabis plants [5]; 500 ppm foliar spray, sativa-type plants): 1 of the 3
- Fusarium spore Count (Fusarium; 7 Days Post-Treatment): 0 per cubic meter
- Fusarium spore Count (Fusarium; 45 Days Post-Treatment): 0 per cubic meter
- Bipolaris/Drechslera spore Count (Bipolaris/Drechslera; 7 Days Post-Treatment): 0 per cubic meter
- Bipolaris/Drechslera spore Count (Bipolaris/Drechslera; 45 Days Post-Treatment): 0 per cubic meter
- assessment of the dose (Cannabis plants [6]; Trial 1, 1.9 mg chlorine dioxide per cubic foot): considered detrimental
- plant death (Cannabis plants [6]; Trial 1, 1.9 mg chlorine dioxide per cubic foot, 18 hours): none of the 4 plants died
- plant damage (Cannabis plants [6]; Trial 1, 1.9 mg chlorine dioxide per cubic foot, 18 hours, 24-48 hours post-treatment): all 4 plants showed damage in the form of yellowing and chlorosis
- plant appearance (Cannabis plants [6]; Trial 1, 1.9 mg chlorine dioxide per cubic foot, immediately following the 18 hours of contact time): the plants still appeared healthy
- plant damage (Cannabis plants [6]; Trial 2, 0.45 mg chlorine dioxide per cubic foot, 18 hours, 840 healthy flowering plants): All plants remained healthy and undamaged
- Smuts/Myxomycetes spore Count (Smuts/Myxomycetes; 7 Days Post-Treatment): 173 per cubic meter
- Smuts/Myxomycetes spore Count (Smuts/Myxomycetes; 45 Days Post-Treatment): 13 per cubic meter
- Oidium spore Count (Oidium; 7 Days Post-Treatment): 13 per cubic meter
- Oidium spore Count (Oidium; 45 Days Post-Treatment): 0 per cubic meter
- Total spore Count (total spores; 7 Days Post-Treatment): 320 per cubic meter
- Total spore Count (total spores; 45 Days Post-Treatment): 13 per cubic meter
- Ascospores Count (Ascospores; 7 Days Post-Treatment): 27 per cubic meter
- Ascospores Count (Ascospores; 45 Days Post-Treatment): 0 per cubic meter
